Reference: ChEMBL document CHEMBL1201862, “PubChem BioAssay data set” (2004)
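Grown in 96-well plates, cells were treated for 48 hours with each compound at five concentrations. Insufficient inhibition: endpoint recorded as highest concentration tested. GI50 is the concentration that inhibits growth by half.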 Activity calls are given as the source filed them. No stated cut-off is given here; in the data, active = GI50 up to about 1.1 µM and inactive = higher.

Key:
Assay in all cases: NCI anticancer screen, dose series, 48 h
SN12C = tested on: SN12C
SK-OV-3 = tested on: SK-OV-3
CCRF-CEM = tested on: CCRF-CEM
UACC-62 = tested on: UACC-62
SK-MEL-2 = tested on: SK-MEL-2
HL-60 = tested on: HL-60
RXF 393 = tested on: RXF 393
K562 = tested on: K562
SNB-19 = tested on: SNB-19
M14 = tested on: M14
SR = tested on: SR
U-251 = tested on: U-251
HCC 2998 = tested on: HCC 2998
NCI-H460 = tested on: NCI-H460
SK-MEL-28 = tested on: SK-MEL-28
OVCAR-5 = tested on: OVCAR-5

Measured: GI50

COc1ccc(-c2[nH]c3ccccc3c2CCNS(=O)(=O)c2ccc(C)cc2)cc1
inactive: SN12C > 10 µM | SK-OV-3 > 10 µM | CCRF-CEM 3.72 µM | UACC-62 > 8.39 µM | SK-MEL-2 > 10 µM | HL-60 6.7 µM | RXF 393 > 10 µM | K562 5.06 µM | SNB-19 > 10 µM | M14 > 10 µM | SR > 10 µM | U-251 8.09 µM | HCC 2998 9.68 µM | NCI-H460 6.17 µM | SK-MEL-28 > 10 µM | OVCAR-5 > 10 µM

CC1CC2C(=O)N(c3ccccc3)C(=O)C2c2[nH]c3ccccc3c21 (stereo unspecified)
inactive: SN12C > 100 µM | SK-OV-3 14.2 µM | CCRF-CEM 35.6 µM | UACC-62 > 100 µM | HL-60 31.8 µM | RXF 393 30.3 µM | K562 33 µM | M14 78.9 µM | SR 29.2 µM | U-251 38.8 µM | HCC 2998 > 100 µM | NCI-H460 63.7 µM | SK-MEL-28 58.9 µM

CCOC(=O)N1CCc2cc(OC)c(OC)c3c2C1CC3=O (stereo unspecified)
inactive: SN12C > 100 µM | SK-OV-3 > 100 µM | CCRF-CEM > 100 µM | UACC-62 > 100 µM | SK-MEL-2 > 100 µM | HL-60 > 100 µM | RXF 393 > 100 µM | K562 > 100 µM | SNB-19 > 100 µM | M14 > 100 µM | SR > 100 µM | U-251 > 100 µM | HCC 2998 > 100 µM | NCI-H460 > 100 µM | OVCAR-5 > 100 µM

COC(=O)c1c(CC#N)cccc1CC#N
inactive: SN12C > 100 µM | SK-OV-3 > 100 µM | CCRF-CEM > 100 µM | UACC-62 > 100 µM | SK-MEL-2 > 100 µM | HL-60 > 100 µM | RXF 393 > 100 µM | K562 > 100 µM | SNB-19 > 100 µM | M14 > 100 µM | SR > 100 µM | U-251 > 100 µM | HCC 2998 > 100 µM | NCI-H460 > 100 µM | OVCAR-5 > 100 µM

OCCN1CCN2C=C(C3CCCC4N(CCO)CCN34)CCC21 (stereo unspecified)
inactive: SN12C 39.5 µM | SK-OV-3 > 69.2 µM | CCRF-CEM 5.56 µM | UACC-62 28.1 µM | SK-MEL-2 23.5 µM | HL-60 5.28 µM | RXF 393 20.3 µM | K562 11.6 µM | SNB-19 > 100 µM | M14 44.7 µM | SR 5.68 µM | U-251 41.4 µM | HCC 2998 > 100 µM | NCI-H460 > 100 µM | SK-MEL-28 42 µM | OVCAR-5 > 100 µM

CC(=O)Nc1ccc(S(=O)(=O)NN(C)S(=O)(=O)c2ccc(C)cc2)cc1
inactive: SN12C > 100 µM | SK-OV-3 > 100 µM | CCRF-CEM > 100 µM | UACC-62 > 100 µM | SK-MEL-2 > 100 µM | HL-60 > 100 µM | RXF 393 > 100 µM | K562 > 100 µM | SNB-19 > 100 µM | M14 > 100 µM | SR > 100 µM | HCC 2998 > 100 µM | NCI-H460 > 100 µM | SK-MEL-28 > 100 µM | OVCAR-5 > 100 µM

Cn1nc(-c2ccccc2)c(N=[N+]=[N-])cc1=O
inactive: SN12C > 100 µM | SK-OV-3 1.59 µM | CCRF-CEM > 100 µM | UACC-62 > 100 µM | HL-60 > 100 µM | RXF 393 > 100 µM | K562 > 100 µM | SNB-19 > 100 µM | M14 > 100 µM | SR > 100 µM | U-251 > 100 µM | HCC 2998 > 100 µM | NCI-H460 > 100 µM | SK-MEL-28 > 100 µM | OVCAR-5 > 100 µM

CCCCCCCCCCCCCC(=O)OCC1OC(n2cc(F)c(=O)[nH]c2=O)C(NC(=O)OCc2ccccc2)C(OC(=O)CCCCCCCCCCCCC)C1O (stereo unspecified)
inactive: SN12C > 100 µM | SK-OV-3 > 100 µM | CCRF-CEM > 100 µM | UACC-62 > 100 µM | SK-MEL-2 > 100 µM | HL-60 > 100 µM | RXF 393 > 100 µM | K562 > 100 µM | SNB-19 > 100 µM | M14 > 100 µM | SR > 100 µM | U-251 > 100 µM | HCC 2998 > 100 µM | NCI-H460 > 100 µM | SK-MEL-28 > 100 µM | OVCAR-5 25.6 µM

Cc1ccc(S(=O)(=O)N2CCC3(C(/C=C/c4ccccc4)=Nc4ccccc43)C2c2ccccc2)cc1 (stereo unspecified)
inactive: SN12C > 100 µM | SK-OV-3 > 100 µM | CCRF-CEM > 100 µM | UACC-62 > 100 µM | HL-60 > 100 µM | RXF 393 > 100 µM | K562 21.3 µM | SNB-19 > 100 µM | M14 > 100 µM | SR > 100 µM | U-251 > 100 µM | HCC 2998 > 100 µM | NCI-H460 > 100 µM | SK-MEL-28 > 100 µM | OVCAR-5 > 100 µM

N#C/C(=C1\OC(=N)C(c2ccc(Cl)cc2)=C1O)c1ccc(Cl)cc1
inactive: SN12C 11 µM | SK-OV-3 37.8 µM | CCRF-CEM 12.8 µM | UACC-62 14.2 µM | HL-60 13.3 µM | RXF 393 12.4 µM | K562 23.5 µM | SNB-19 19.6 µM | M14 15.2 µM | SR 18.7 µM | U-251 15.3 µM | HCC 2998 17.1 µM | NCI-H460 17.3 µM | SK-MEL-28 26.5 µM | OVCAR-5 2.99 µM

C=CC(=O)NCCSCCCOC1(C(=O)O)CC(O)C(NC(C)=O)C(C(O)C(O)CO)O1 (stereo unspecified)
inactive: SN12C > 100 µM | SK-OV-3 > 100 µM | UACC-62 > 100 µM | SK-MEL-2 > 100 µM | HL-60 > 100 µM | RXF 393 > 100 µM | K562 > 100 µM | SNB-19 > 100 µM | M14 > 100 µM | SR > 100 µM | U-251 > 100 µM | HCC 2998 > 100 µM | NCI-H460 > 100 µM | SK-MEL-28 > 100 µM | OVCAR-5 > 100 µM

CC(=O)OC[C@]1(O)CC[C@@]23CC1C[C@@H]2CCC1C(C)(C)CCC[C@@]13C (stereo partly specified)
inactive: SN12C 12.2 µM | SK-OV-3 15.2 µM | CCRF-CEM 10.1 µM | UACC-62 13.4 µM | HL-60 4.95 µM | RXF 393 7.11 µM | K562 4.76 µM | SNB-19 14.5 µM | M14 13.9 µM | SR 8.89 µM | U-251 14 µM | HCC 2998 17.4 µM | NCI-H460 14.7 µM | SK-MEL-28 14.8 µM | OVCAR-5 11.3 µM

COC(=O)C1[C@@H](C(=O)OC)C(=O)O[C@H]1c1cc(OC)c(OC)c(OC)c1 (stereo partly specified)
inactive: SN12C > 100 µM | SK-OV-3 > 100 µM | CCRF-CEM > 100 µM | UACC-62 > 100 µM | HL-60 > 100 µM | RXF 393 > 100 µM | K562 > 100 µM | SNB-19 > 100 µM | M14 > 100 µM | SR > 100 µM | U-251 > 100 µM | HCC 2998 > 100 µM | NCI-H460 > 100 µM | SK-MEL-28 > 100 µM | OVCAR-5 > 100 µM
